Experimental findings from EP2181708A1, “Use of Valproate for reducing CHOP levels, particularly in a mammal having SCI” (Universitat Autonoma de Barcelona, priority 2008, dated 2010) are described below.

Molecules are shown by their SMILES.

The test system of this assay is ATF4. In words: Western blot of ATF4 in spinal cord after contusion SCI. The following applies: VPA-treated injured spinal cords compared with vehicle-treated ones. It is filed as in vivo, Sprague-Dawley rats. The method, then: Adult females Sprague-Dawley rats aged 11 weeks (220-250 g) were anesthetized with pentobarbital (40 mg/kg i.p.). When unresponsive, the vertebral column was exposed and a laminectomy carried out at T8-T9 levels. Rostral T7 and caudal T10 vertebral bodies were clamped with Adson stabilizing forceps, and carefully adjusted to level the spinal cord in the horizontal plane. A contusion injury was performed using the Infinite Horizon impactor device (Precision Scientific Instruments, Lexington, KY). The stainless steel impounder tip was placed at 3-4 mm above the exposed spinal cord, and then a fast impact produced applying forces of 150 or 250 kilodynes (KDyn) to the exposed spinal cord. The wound was sutured with 5-0 silk thread in the muscular plane and the skin was closed with small clips and disinfected with povidone iodine solution. Sham-operated animals received the same surgical procedure but sustained no impact injury; the spinal cord was left exposed for 5 min. […]
Rats were re-anesthetised and decapitated at 3 dpo for sample preparation. […] After clearance, protein concentration was measured by the BCA method assay (BCA Protein Assay kit, Pierce). […] The membrane was visualized by enhanced chemiluminiscence (ECL) method and the images analyzed with Gene Snap and Gene Tools software, and Gene Genome apparatus (Syngene). […]

Turning to `CCCC(CCC)C(=O)O` [VPA, 2-propylpentanoic acid], the “levels of ATF4” value is on record as “significantly higher levels”.
